Source: PubChem BioAssay AID1963444 (Molecular Pharmacology Branch, DTP, NCI, 2024)
Several values for one entry are separate records, joined by “and”; a condition that tells them apart may be missing. Equal entries are not always repeated.

Test system: HSSY-II complex spheroid growth, percent test/control
Test: Anticancer human tumor HSSY-II cell line growth inhibition [Asc];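 further: spheroids exposed to drug for 7 days before reading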
Conditions: for viability, T/C: stronger effect = lower value
Experimental: Multicellular complex tumor spheroid response to apoptosis pathway targeting inhibitors Alrizomadlin, Pelcitoclax, and Dasminapant in combination with a variety of drugs and investigational agents in selected tumor cell lines
The MDM2 inhibitor alrizomadlin, the Bcl-2/Bcl-xL inhibitor pelcitoclax, and the IAPs inhibitor dasminapant were evaluated both individually and in combination with standard of care and investigational anticancer small molecules within a complex spheroid model of solid tumors. . Complex spheroids include a stromal component modeled by human endothelial cells (HUVEC) and fibroblasts modeled by human mesenchymal stem cells (MSCs). The concentration ranges selected for each drug and investigational agent were based upon clinically achievable concentrations if the clinical Cmax of the agent was known.
Compounds. The drugs and investigational agents: alrizomadlin (APG-115; NSC831270), pelcitoclax (APG-1252; NSC835773), dasminapant (APG-1387;NSC834197), TAK-243 (NSC785004), copanlisib (NSC809693), olaparib (NSC753686), talazoparib (NSC767125), cobimetinib (NSC 768068), eltanexor (KPT-8602, NSC 794443), abemaciclib (NSC 768073), sotorasib (NSC818433), adagrasib (NSC 831453), MRTX-1133 (NSC 836407), Iadademestat (ORY1001, NSC 806812), and RMC-4630 (NSC839698), were obtained from the NCI Developmental Therapeutics Program Chemical Repository. The FDA-approved anticancer drug set is available from the Developmental Therapeutics Program at https://dtp.cancer.gov/organization/dscb/obtaining/available plates.htm. […] The stock solutions were prepared in dimethyl sulfoxide (DMSO, Sigma-Aldrich, St. Louis, MO, cat. D2650) at 800-fold the tested concentration and stored at -70 degrees C prior to their use. All drugs and investigational agents were tested over a range starting from a high concentration at or near the clinical Cmax and decreasing in half-log increments. If the clinical Cmax for an agent had not been determined, the highest concentration tested was 10 microM.
The patient-derived cancer (PDC) cell lines include five colon adenocarcinomas: 186277-243-T-J2-PDC, 616215-338-R-J1-PDC, 439559-082-T-J2-PDC, 463943-066-T-J2-PDC, and 519858-162-T-J1-PDC; three pancreatic carcinomas: 323965-272-R-J2-PDC, 521955-158-R6-J3-PDC, and 521955-158-R2-J5-PDC; two uterine sarcomas: 327498-152-R-J2-PDC and 993429-296-R-J1-PDC; two rhabdomyosarcomas: 755483-174-R-J1-PDC and 772245-204-R-J1-PDC; two soft tissue sarcomas: 126254-015-R-J1-PDC and 494315-158-R-J1-PDC; two malignant fibrous histiocytomas: 317291-083-R-J1-PDC and 596521-263-R-J1-PDC; two breast carcinomas: 171881-019-R-J1-PDC and 885512-296-R-J2-PDC; and one ovarian carcinoma: 6556581-035-R-J-PDC were obtained from the NCI PDMR, (https://pdmr.cancer.gov). The established cell lines HSSY-2 synovial sarcoma (RRID:CVCL 8719), SYO-1 synovial sarcoma (RRID:CVCL_7146), MPNST malignant peripheral neural sheath tumor were obtained from the Sloan Kettering Institute. The following established cell lines were purchased from the American Type Culture Collection (ATCC, Manassas, VA), Sor the received from the NCI repository:, PANC-1 pancreatic carcinoma (CRL-1469, RRID:CVCL_0480), OVCAR-5 ovarian carcinoma (RRID:CVCL_1628), OVCAR-8 ovarian carcinoma (RRID:CVCL_1629), , MCF-7 breast carcinoma (CRL-12584, RRID:CVCL_0031), MDA-MB-231 breast carcinoma (CRL-12532, RRID:CVCL_0062), NCI-H1876 small cell lung carcinoma (CRL-5902, RRID:CVCL_1503), NCI-H510A small cell lung carcinoma (HTB-184, RRID:CVCL_1565), NCI-H1417 (CRL-5869, RRID:CVCL_1469), and NCI-H196 small cell lung carcinoma (CRL-5823, RRID:CVCL_1509). Dr. Peter Houghton (Greehey Children's Cancer Research Institute, University of Texas Health Science Center, San Antonio, TX) provided Rh-18 rhabdomyosarcoma (RRID:CVCL_1659). Pooled donor human umbilical vein endothelial cells (HUVEC, Lonza, cat. CC-2519) and human mesenchymal stem cells (hMSC, Lonza, cat. PT-2501) were purchased from Lonza (Walkersville, MD).
Cell Culture. […]

[1] = compound alone, run of 10/11/2022

Row | Structure (SMILES) | IC50 (curve of compound) | viability, T/C (compound 0.0316 µM) | viability, T/C (compound 0.1 µM) | viability, T/C (compound 0.316 µM) | viability, T/C (compound 1 µM) | viability, T/C (compound 0.00316 µM) | viability, T/C (compound 0.01 µM) | further results
1 | C=CC(=O)N1CCN(c2nc(=O)n(-c3c(C)ccnc3C(C)C)c3nc(-c4c(O)cccc4F)c(F)cc23)C(C)C1 (stereo unspecified) | > 10000 nM | 107% and 90.9% and 100% | 108% and 97.8% and 106% | 106% and 100% and 99.8% | 106% and 105% and 102% |  |  | viability, T/C (compound 3.16 µM): 95.8% and 106% and 103%; viability, T/C (compound 10 µM): 66.7% and 56.7% and 70.2%
2 | CCN1C(C(=O)NC23CCC(C(=O)O)(CC2)CC3)C(c2cccc(Cl)c2F)C2(C(=O)Nc3cc(Cl)ccc32)C12CCCCC2 (stereo unspecified) | 133 nM and 135 nM |  |  |  |  |  |  | viability, T/C (compound 0.00949 µM): 99.7% and 101%; viability, T/C (compound 0.03 µM): 89.3% [middle of 15 runs]; viability, T/C (compound 0.0949 µM): 62.1% [middle of 15 runs]; viability, T/C (compound 0.3 µM): 27% [middle of 15 runs]; viability, T/C (compound 0.949 µM): 8.58% [middle of 15 runs]; viability, T/C (compound 3 µM): 2.55% [middle of 15 runs]; IC50 [1]: 143 nM [middle of 12 runs]
3 | CNC(C)C(=O)NC1CN(S(=O)(=O)c2cccc(S(=O)(=O)N3CCC4CCC(C(=O)NC(c5ccccc5)c5ccccc5)N4C(=O)C(NC(=O)C(C)NC)C3)c2)CCC2CCC(C(=O)NC(c3ccccc3)c3ccccc3)N2C1=O (stereo unspecified) | > 1000 nM | 89.1% [middle of 14 runs] |  |  |  | 102% and 96.8% and 85% |  | IC50 (compound alone, run of 10/24/2022): > 1000 nM; IC50 (compound alone, run of 11/15/2022): > 1000 nM
4 | Cc1c(S(C)(=O)=O)c(-c2cc(F)cc(N3CCN(c4ccc(NS(=O)(=O)c5ccc(NC(CCN6CCC(C(=O)OCCCP(=O)(O)O)CC6)CSc6ccccc6)c(S(=O)(=O)C(F)(F)F)c5)cc4)CC3)c2)c(-c2ccc(Cl)cc2)n1C(C)C (stereo unspecified) |  |  |  |  |  |  |  | IC50 [1]: > 10000 nM and 2630 nM
5 | NC(=O)C(=Cn1cnc(-c2cc(C(F)(F)F)cc(C(F)(F)F)c2)n1)c1cncnc1 | 23.9 nM and 16.6 nM and 17.7 nM |  |  |  |  |  |  | viability, T/C (compound 0.000949 µM): 97.2% and 85.3% and 90.9%; viability, T/C (compound 0.003 µM): 94.1% and 76.9% and 88.4%; viability, T/C (compound 0.00949 µM): 67.6% and 69.8% and 61.6%; viability, T/C (compound 0.03 µM): 46.4% and 29.8% and 40.1%; viability, T/C (compound 0.0949 µM): 18.6% and 11.1% and 9.98%; viability, T/C (compound 0.3 µM): 1.34% and 1.15% and 1.13%
6 | NC1CCC(NC2CC2c2ccccc2)CC1 (stereo unspecified) | > 100 nM | 61% and 59.4% and 54.2% | 59.8% and 53.7% and 49.7% |  |  | 58.7% and 61.8% and 52.4% | 53.8% and 56.1% and 47% | viability, T/C (compound 0.000316 µM): 71.8% and 62.3% and 60.2%; viability, T/C (compound 0.001 µM): 68.3% and 66.5% and 58.3%
7 | O=C(c1ccc(F)c(F)c1Nc1ccc(I)cc1F)N1CC(O)([C@@H]2CCCCN2)C1 | 522 nM and 567 nM and 590 nM | 83.1% and 103% and 102% | 92.8% and 102% and 122% | 73.6% and 74.8% and 78.3% | 19.4% and 25.9% and 26% | 97.1% and 106% and 100% | 99.7% and 107% and 102% | 

Continued, in another order:

Row | IC50 (curve of compound) | Structure (SMILES) | viability, T/C (compound 0.0316 µM) | viability, T/C (compound 0.1 µM) | viability, T/C (compound 0.316 µM) | viability, T/C (compound 1 µM) | viability, T/C (compound 0.00316 µM) | viability, T/C (compound 0.01 µM) | further results
8 | > 10000 nM and 8850 nM | C#Cc1c(F)ccc2cc(O)cc(-c3ncc4c(N5CC6CCC(C5)N6)nc(OCC56CCCN5CC(F)C6)nc4c3F)c12 (stereo unspecified) | 97.9% and 106% and 112% | 101% and 94.9% and 106% | 97.4% and 92.7% and 94% | 105% and 102% and 90.2% |  |  | viability, T/C (compound 3.16 µM): 91.3% and 93.7% and 92.3%; viability, T/C (compound 10 µM): 74.2% and 53.3% and 44.5%
9 | 1430 nM and 1580 nM and 1410 nM | C=C(F)C(=O)N1CCN(c2nc(OCC3CCCN3C)nc3c2CCN(c2cccc4cccc(Cl)c24)C3)CC1CC#N (stereo unspecified) | 102% and 104% and 97.2% | 100% and 111% and 98.8% | 89.8% and 89.1% and 90.5% | 70.2% and 80.1% and 70% |  |  | viability, T/C (compound 3.16 µM): 5.2% and 4.65% and 3.69%; viability, T/C (compound 10 µM): 0.22% and 0.2% and 0.21%
10 | 201 nM and 80.5 nM and 328 nM | CCN1CCN(Cc2ccc(Nc3ncc(F)c(-c4cc(F)c5nc(C)n(C(C)C)c5c4)n3)nc2)CC1 | 65.6% and 73.6% and 78.9% | 59.6% and 44.7% and 74.7% | 49.6% and 35.2% and 46.9% | 27.2% and 30.8% and 28.5% | 102% and 74.4% and 98.4% | 94.4% and 70.5% and 78.7% | 
11 | 36.8 nM and 53.1 nM and 71.8 nM | COc1c(OCCCN2CCOCC2)ccc2c3n(c(=NC(=O)c4cnc(N)nc4)nc12)CCN3 | 49.7% and 56.5% and 61.6% | 32.7% and 39.2% and 46.4% | 23.3% and 23.6% and 26.9% | 13.1% and 13.5% and 11.5% | 91.6% and 98.3% and 96.8% | 79.1% and 86.2% and 79.5% | 
12 | > 3000 nM | Cc1nc(N2CCC3(CC2)COC(C)C3N)c(CO)nc1Sc1ccnc(N)c1Cl (stereo unspecified) |  |  |  |  |  |  | viability, T/C (compound 0.00949 µM): 96.6% and 103% and 111%; viability, T/C (compound 0.03 µM): 96.7% and 113% and 106%; viability, T/C (compound 0.0949 µM): 96.6% and 108% and 102%; viability, T/C (compound 0.3 µM): 99.3% and 106% and 105%; viability, T/C (compound 0.949 µM): 91.7% (2×) and 88.5%; viability, T/C (compound 3 µM): 67.1% and 75.8% and 68.5%
13 | 38.8 nM and > 100 nM and 42.6 nM | Cn1ncnc1[C@H]1c2n[nH]c(=O)c3cc(F)cc(c23)N[C@@H]1c1ccc(F)cc1 | 57.3% and 55.5% and 65.2% | 25.6% and 69.3% and 22.8% |  |  | 90.7% and 96% and 83.2% | 70.8% and 84.3% and 72.3% | viability, T/C (compound 0.000316 µM): 93.9% and 100% and 96.2%; viability, T/C (compound 0.001 µM): 94.1% and 95.6% and 96.7%
14 | 2810 nM and 3510 nM and 3970 nM | O=C(c1cc(Cc2n[nH]c(=O)c3ccccc23)ccc1F)N1CCN(C(=O)C2CC2)CC1 | 87.4% and 98% and 105% | 90.4% and 103% and 91.2% | 86.4% and 63% and 94.2% | 78.5% and 87.6% and 98.6% |  |  | viability, T/C (compound 3.16 µM): 46.7% and 54.1% and 59.5%; viability, T/C (compound 10 µM): 15.5% and 12.1% and 11.8%
